Each compound was assayed against Mcl-1 protein (UniProtKB Q07820) (Homo sapiens, UniProt Q07820) (assay: Inhibition of Mcl-1 by the fluorescence polarisation technique). Details: fluorescein labelled ligand 1 nM, Mcl-1 protein 5 nM, ~2 hours at room temperature; read-out: IC50 (μM) Mcl-1 FP.
Assay type: binding
Protocol: The relative binding potency of each compound was determined via Fluorescence Polarisation (FP). The method utilised a Fluorescein labelled ligand (Fluorescein-βAla-Ahx-A-REIGAQLRRMADDLNAQY-OH; mw 2,765) which binds to the Mcl-1 protein (such that Mcl-1 corresponds to the UniProtKB® primary accession number: Q07820) leading to an increased anisotropy measured in milli-polarisation (mP) units using a reader. The addition of a compound which binds competitively to the same site as the ligand will result in a greater proportion of unbound ligand in the system indicated by a decrease in mP units.
An 11 point serial dilution of each compound was prepared in DMSO and 2 μl transferred into flat bottomed, low binding, 384-well plate (final DMSO concentration 5%). 38 μl of buffer (10 mM 4-(2-hydroxyethyl)-1-piperazineethanesulfonic acid [HEPES], 150 mM NaCl, 0.05% Tween 20, pH 7.4), containing the Fluorescein labelled ligand (final concentration 1 nM) and Mcl-1 protein (final concentration 5 nM) was then added.
Assay plates were incubated ˜2 hours at room temperature before FP was measured on a […] Synergy2 reader (Ex. 528 nm, Em. 640 nm, Cut off 510 nm) and mP units calculated. The binding of increasing doses of test compound was expressed as a percentage reduction in mP compared to a window established between ‘5% DMSO only’ and ‘100% inhibition’ controls. 11-point dose response curves were plotted with XL-Fit software using a 4-Parameter Logistic Model (Sigmoidal Dose-Response Model) and the inhibitory concentrations that gave a 50% reduction in mP (IC50) were determined.

Chain of Mcl-1 protein (Q07820 whole entry): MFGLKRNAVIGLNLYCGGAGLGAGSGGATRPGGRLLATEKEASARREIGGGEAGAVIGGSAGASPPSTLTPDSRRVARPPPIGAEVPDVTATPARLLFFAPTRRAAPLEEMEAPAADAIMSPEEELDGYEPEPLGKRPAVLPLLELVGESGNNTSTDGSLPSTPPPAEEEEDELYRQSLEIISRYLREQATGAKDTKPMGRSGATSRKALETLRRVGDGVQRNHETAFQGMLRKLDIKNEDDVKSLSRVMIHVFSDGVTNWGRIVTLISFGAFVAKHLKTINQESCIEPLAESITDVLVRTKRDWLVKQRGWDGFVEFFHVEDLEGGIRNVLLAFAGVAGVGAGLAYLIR

| SMILES | IC50 [µM] |
| --- | --- |
| COc1ccccc1-c1nccc(COc2ccccc2CC(Oc2ncnc3sc(-c4ccc(F)cc4)c(-c4ccc(OCCN5CCN(C)CC5)c(Cl)c4C)c23)C(=O)OC(C)OC(=O)N2CCOCC2)n1 [Example 9, 1-{[(2R)-2-{[(5Sa)-5-{3-chloro-2-methyl-4-[2-(4-methylpiperazin-1-yl)ethoxy]phenyl}-6-(4-fluorophenyl)thieno[2,3-d]pyrimidin-4-yl]oxy}-3-(2-{[2-(2-methoxyphenyl)pyrimidin-4-yl]methoxy}phenyl)propanoyl]oxy}ethyl morpholine-4-carboxylate] | 0.52 |
| COc1ccccc1-c1nccc(COc2ccccc2CC(Oc2ncnc3sc(-c4ccc(F)cc4)c(-c4ccc(OCCN5CCN(C)CC5)c(Cl)c4C)c23)C(=O)OC(C)OC(=O)OC2CCCC2)n1 [Example 5, 1-{[(cyclopentyloxy)carbonyl]oxy}ethyl (2R)-2-{[(5Sa)-5-{3-chloro-2-methyl-4-[2-(4-methylpiperazin-1-yl)ethoxy]phenyl}-6-(4-fluorophenyl)thieno[2,3-d]pyrimidin-4-yl]oxy}-3-(2-{[2-(2-methoxyphenyl)pyrimidin-4-yl]methoxy}phenyl)propanoate] | 0.37 |
| CCOC(=O)OC(C)OC(=O)C(Cc1ccccc1OCc1ccnc(-c2ccccc2OC)n1)Oc1ncnc2sc(-c3ccc(F)cc3)c(-c3ccc(OCCN4CCN(C)CC4)c(Cl)c3C)c12 [Example 2, 1-[(ethoxycarbonyl)oxy]ethyl (2R)-2-{[(5Sa)-5-{3-chloro-2-methyl-4-[2-(4-methylpiperazin-1-yl)ethoxy]phenyl}-6-(4-fluorophenyl)thieno[2,3-d]pyrimidin-4-yl]oxy}-3-(2-{[2-(2-methoxyphenyl)pyrimidin-4-yl]methoxy}phenyl)propanoate] | 0.361 |
| COc1ccccc1-c1nccc(COc2ccccc2CC(Oc2ncnc3sc(-c4ccc(F)cc4)c(-c4ccc(OCCN5CCN(C)CC5)c(Cl)c4C)c23)C(=O)OC(C)OC(=O)OC(C)C)n1 [Example 3, 1-{[(propan-2-yloxy)carbonyl]oxy}ethyl (2R)-2-{[(5Sa)-5-{3-chloro-2-methyl-4-[2-(4-methylpiperazin-1-yl)ethoxy]phenyl}-6-(4-fluorophenyl)thieno[2,3-d]pyrimidin-4-yl]oxy}-3-(2-{[2-(2-methoxyphenyl)pyrimidin-4-yl]methoxy}phenyl)propanoate] | 0.292 |
| CCCCCCCCOC(=O)OC(C)OC(=O)C(Cc1ccccc1OCc1ccnc(-c2ccccc2OC)n1)Oc1ncnc2sc(-c3ccc(F)cc3)c(-c3ccc(OCCN4CCN(C)CC4)c(Cl)c3C)c12 [Example 6, 1-{[(octyloxy)carbonyl]oxy}ethyl (2R)-2-{[(5Sa)-5-{3-chloro-2-methyl-4-[2-(4-methylpiperazin-1-yl)ethoxy]phenyl}-6-(4-fluorophenyl)thieno[2,3-d]pyrimidin-4-yl]oxy}-3-(2-{[2-(2-methoxyphenyl)pyrimidin-4-yl]methoxy}phenyl)propanoate] | 0.51 |
| COC(=O)OC(C)OC(=O)C(Cc1ccccc1OCc1ccnc(-c2ccccc2OC)n1)Oc1ncnc2sc(-c3ccc(F)cc3)c(-c3ccc(OCCN4CCN(C)CC4)c(Cl)c3C)c12 [Example 1, 1-[(methoxycarbonyl)oxy]ethyl (2R)-2-{[(5Sa)-5-{3-chloro-2-methyl-4-[2-(4-methylpiperazin-1-yl)ethoxy]phenyl}-6-(4-fluorophenyl)thieno[2,3-d]pyrimidin-4-yl]oxy}-3-(2-{[2-(2-methoxyphenyl)pyrimidin-4-yl]methoxy}phenyl)propanoate] | 0.037 |
| CCN(CC)C(=O)OC(C)OC(=O)C(Cc1ccccc1OCc1ccnc(-c2ccccc2OC)n1)Oc1ncnc2sc(-c3ccc(F)cc3)c(-c3ccc(OCCN4CCN(C)CC4)c(Cl)c3C)c12 [Example 8, 1-[(diethylcarbamoyl)oxy]ethyl (2R)-2-{[(5Sa)-5-{3-chloro-2-methyl-4-[2-(4-methylpiperazin-1-yl)ethoxy]phenyl}-6-(4-fluorophenyl)thieno[2,3-d]pyrimidin-4-yl]oxy}-3-(2-{[2-(2-methoxyphenyl)pyrimidin-4-yl]methoxy}phenyl)propanoate] | 1.41 |
| COc1ccccc1-c1nccc(COc2ccccc2CC(Oc2ncnc3sc(-c4ccc(F)cc4)c(-c4ccc(OCCN5CCN(C)CC5)c(Cl)c4C)c23)C(=O)OC(C)OC(=O)OC(C)(C)C)n1 [Example 4, 1-[(tert-butoxycarbonyl)oxy]ethyl (2R)-2-{[(5Sa)-5-{3-chloro-2-methyl-4-[2-(4-methylpiperazin-1-yl)ethoxy]phenyl}-6-(4-fluorophenyl)thieno[2,3-d]pyrimidin-4-yl]oxy}-3-(2-{[2-(2-methoxyphenyl)pyrimidin-4-yl]methoxy}phenyl)propanoate] | 0.959 |

Now from value to compound:

| IC50 [µM] | SMILES |
| --- | --- |
| 0.147 | COCCNC(=O)OC(C)OC(=O)C(Cc1ccccc1OCc1ccnc(-c2ccccc2OC)n1)Oc1ncnc2sc(-c3ccc(F)cc3)c(-c3ccc(OCCN4CCN(C)CC4)c(Cl)c3C)c12 [Example 10, 1-{[(2-methoxyethyl)carbamoyl]oxy}ethyl (2R)-2-{[(5Sa)-5-{3-chloro-2-methyl-4-[2-(4-methylpiperazin-1-yl)ethoxy]phenyl}-6-(4-fluorophenyl)thieno[2,3-d]pyrimidin-4-yl]oxy}-3-(2-{[2-(2-methoxyphenyl)pyrimidin-4-yl]methoxy}phenyl) propanoate] |
| 0.0032 | COc1ccccc1-c1nccc(COc2ccccc2CC(Oc2ncnc3sc(-c4ccc(F)cc4)c(-c4ccc(OCCN5CCN(C)CC5)c(Cl)c4C)c23)C(=O)OCOP(=O)(O)O)n1 [Example 13, (phosphonooxy)methyl (2R)-2-{[(5Sa)-5-{3-chloro-2-methyl-4-[2-(4-methylpiperazin-1-yl)ethoxy]phenyl}-6-(4-fluorophenyl)thieno[2,3-d]pyrimidin-4-yl]oxy}-3-(2-{[2-(2-methoxyphenyl)pyrimidin-4-yl]methoxy}phenyl)propanoate] |
| 0.318 | COC(=O)CN(C)C(=O)OC(C)OC(=O)C(Cc1ccccc1OCc1ccnc(-c2ccccc2OC)n1)Oc1ncnc2sc(-c3ccc(F)cc3)c(-c3ccc(OCCN4CCN(C)CC4)c(Cl)c3C)c12 [Example 12, 1-{[(2-methoxy-2-oxoethyl)(methyl)carbamoyl]oxy}ethyl (2R)-2-{[(5Sa)-5-{3-chloro-2-methyl-4-[2-(4-methylpiperazin-1-yl)ethoxy]phenyl}-6-(4-fluorophenyl)thieno[2,3-d]pyrimidin-4-yl]oxy}-3-(2-{[2-(2-methoxyphenyl)pyrimidin-4-yl]methoxy}phenyl)propanoate] |
| 0.551 | COCCN(CCOC)C(=O)OC(C)OC(=O)C(Cc1ccccc1OCc1ccnc(-c2ccccc2OC)n1)Oc1ncnc2sc(-c3ccc(F)cc3)c(-c3ccc(OCCN4CCN(C)CC4)c(Cl)c3C)c12 [Example 11, 1-{[bis(2-methoxyethyl)carbamoyl]oxy}ethyl (2R)-2-{[(5Sa)-5-{3-chloro-2-methyl-4-[2-(4-methylpiperazin-1-yl)ethoxy]phenyl}-6-(4-fluorophenyl)thieno[2,3-d]pyrimidin-4-yl]oxy}-3-(2-{[2-(2-methoxyphenyl)pyrimidin-4-yl]methoxy}phenyl)propanoate] |
